Laboratory results from PubChem BioAssay (NCI).
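Assay format: 96-well plates, 48-hour exposure. TGI: concentration producing complete growth inhibition.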

Experiments:
Experiment in all cases: NCI anticancer screen, dose series, 48 h
MDA-MB-231 breast = system: MDA-MB-231 breast
HOP-92 NSCLC = system: HOP-92 NSCLC
HOP-62 NSCLC = system: HOP-62 NSCLC
MDA-MB-435 = system: MDA-MB-435
HCT-15 colon = system: HCT-15 colon
BT-549 breast = system: BT-549 breast
HL-60(TB) leukemia = system: HL-60(TB) leukemia
NCI-H460 lung = system: NCI-H460 lung
SK-MEL-28 melanoma = system: SK-MEL-28 melanoma
HCC-2998 colon = system: HCC-2998 colon
A498 renal = system: A498 renal
SF-539 CNS = system: SF-539 CNS
M14 melanoma = system: M14 melanoma
IGROV1 ovarian = system: IGROV1 ovarian
CCRF-CEM leukemia = system: CCRF-CEM leukemia
SK-MEL-5 melanoma = system: SK-MEL-5 melanoma
PC-3 prostate = system: PC-3 prostate
MCF7 breast = system: MCF7 breast
CAKI-1 renal = system: CAKI-1 renal
U251 CNS = system: U251 CNS
COLO 205 colon = system: COLO 205 colon
OVCAR-5 ovarian = system: OVCAR-5 ovarian
SF-268 CNS = system: SF-268 CNS
NCI-H226 lung = system: NCI-H226 lung
SW-620 colon = system: SW-620 colon
LOX IMVI melanoma = system: LOX IMVI melanoma
ACHN renal = system: ACHN renal
HT29 colon = system: HT29 colon
RXF 393 renal = system: RXF 393 renal
K-562 leukemia = system: K-562 leukemia
SK-OV-3 ovarian = system: SK-OV-3 ovarian
SK-MEL-2 melanoma = system: SK-MEL-2 melanoma
RPMI-8226 leukemia = system: RPMI-8226 leukemia
DU-145 prostate = system: DU-145 prostate
OVCAR-8 ovarian = system: OVCAR-8 ovarian
NCI-H522 lung = system: NCI-H522 lung
UACC-257 melanoma = system: UACC-257 melanoma
SNB-19 CNS = system: SNB-19 CNS
MALME-3M melanoma = system: MALME-3M melanoma
HS 578T breast = system: HS 578T breast
A549 NSCLC = system: A549 NSCLC
NCI-H23 lung = system: NCI-H23 lung
786-0 renal = system: 786-0 renal
SN12C renal = system: SN12C renal
OVCAR-3 ovarian = system: OVCAR-3 ovarian
HCT-116 colon = system: HCT-116 colon
UACC-62 melanoma = system: UACC-62 melanoma
EKVX NSCLC = system: EKVX NSCLC
NCI/ADR-RES ovarian = system: NCI/ADR-RES ovarian
MOLT-4 leukemia = system: MOLT-4 leukemia
UO-31 renal = system: UO-31 renal
MDA-N = system: MDA-N
SF-295 CNS = system: SF-295 CNS
KM12 colon = system: KM12 colon
OVCAR-4 ovarian = system: OVCAR-4 ovarian
TK-10 renal = system: TK-10 renal
SNB-75 CNS = system: SNB-75 CNS
SR leukemia = system: SR leukemia

In the case of `NC(=O)N/N=C\c1ccccc1OCc1cccc(COc2ccccc2/C=N\NC(N)=O)n1`, the TGI (MDA-MB-231 breast) is reported as 32.8 µM, the TGI (HOP-92 NSCLC) is reported as 55.6 µM and the TGI (HOP-62 NSCLC) is reported as 27 µM. For the same molecule, the TGI (MDA-MB-435) was > 100 µM, the TGI (HCT-15 colon) was > 100 µM and the TGI (BT-549 breast) was 81.8 µM. For the same molecule, the TGI (HL-60(TB) leukemia) was > 100 µM, the TGI (NCI-H460 lung) was > 100 µM and the TGI (SK-MEL-28 melanoma) was > 100 µM. The TGI (HCC-2998 colon) was > 100 µM, the TGI (A498 renal) was > 100 µM and the TGI (SF-539 CNS) was 47.9 µM. For the same molecule, the TGI (M14 melanoma) was > 100 µM, the TGI (IGROV1 ovarian) was > 100 µM and the TGI (CCRF-CEM leukemia) was > 100 µM. The TGI (SK-MEL-5 melanoma) was > 100 µM, the TGI (PC-3 prostate) was > 100 µM and the TGI (MCF7 breast) was > 100 µM. For the same molecule, the TGI (CAKI-1 renal) was > 100 µM, the TGI (U251 CNS) was 18.7 µM and the TGI (COLO 205 colon) was > 100 µM. The TGI (OVCAR-5 ovarian) was > 100 µM, the TGI (SF-268 CNS) was 88.6 µM and the TGI (NCI-H226 lung) was > 100 µM. For the same molecule, the TGI (SW-620 colon) was > 100 µM, the TGI (LOX IMVI melanoma) was > 100 µM and the TGI (ACHN renal) was > 100 µM. The TGI (HT29 colon) was > 100 µM, the TGI (RXF 393 renal) was 31.5 µM and the TGI (K-562 leukemia) was > 100 µM. The TGI (SK-OV-3 ovarian) was 49.9 µM, the TGI (SK-MEL-2 melanoma) was > 100 µM and the TGI (RPMI-8226 leukemia) was > 100 µM. For the same molecule, the TGI (DU-145 prostate) was 47.7 µM, the TGI (OVCAR-8 ovarian) was > 100 µM and the TGI (NCI-H522 lung) was > 100 µM. For the same molecule, the TGI (UACC-257 melanoma) was > 100 µM, the TGI (SNB-19 CNS) was > 100 µM and the TGI (MALME-3M melanoma) was > 100 µM. The TGI (HS 578T breast) was > 100 µM, the TGI (A549 NSCLC) was > 100 µM and the TGI (NCI-H23 lung) was > 100 µM. For the same molecule, the TGI (786-0 renal) was > 100 µM, the TGI (SN12C renal) was > 100 µM and the TGI (OVCAR-3 ovarian) was > 100 µM. The TGI (HCT-116 colon) was > 100 µM, the TGI (UACC-62 melanoma) was 51.6 µM and the TGI (EKVX NSCLC) was 69.5 µM. For the same molecule, the TGI (NCI/ADR-RES ovarian) was > 100 µM, the TGI (MOLT-4 leukemia) was > 100 µM and the TGI (UO-31 renal) was > 100 µM. For the same molecule, the TGI (MDA-N) was > 100 µM, the TGI (SF-295 CNS) was 33.8 µM and the TGI (KM12 colon) was > 100 µM. The TGI (OVCAR-4 ovarian) was > 100 µM and the TGI (TK-10 renal) was 85.6 µM.

For `CCCCNc1nc(N)nc(Nc2ccc(Br)cc2)c1N=O`, the TGI (MDA-MB-231 breast) was > 100 µM, the TGI (HOP-62 NSCLC) was > 100 µM and the TGI (MDA-MB-435) was > 100 µM. The TGI (HCT-15 colon) was > 100 µM, the TGI (BT-549 breast) was > 100 µM and the TGI (HL-60(TB) leukemia) was > 100 µM. The TGI (NCI-H460 lung) was > 100 µM, the TGI (SK-MEL-28 melanoma) was > 100 µM and the TGI (HCC-2998 colon) was > 100 µM. For the same molecule, the TGI (SF-539 CNS) was > 100 µM, the TGI (M14 melanoma) was > 100 µM and the TGI (IGROV1 ovarian) was > 100 µM. The TGI (CCRF-CEM leukemia) was > 100 µM, the TGI (SK-MEL-5 melanoma) was > 100 µM and the TGI (PC-3 prostate) was > 100 µM. The TGI (MCF7 breast) was > 100 µM, the TGI (U251 CNS) was > 100 µM and the TGI (COLO 205 colon) was > 100 µM. The TGI (OVCAR-5 ovarian) was > 100 µM, the TGI (SF-268 CNS) was > 100 µM and the TGI (NCI-H226 lung) was > 100 µM. The TGI (SW-620 colon) was > 100 µM, the TGI (SNB-75 CNS) was > 100 µM and the TGI (LOX IMVI melanoma) was > 100 µM. The TGI (ACHN renal) was > 100 µM, the TGI (HT29 colon) was > 100 µM and the TGI (RXF 393 renal) was > 100 µM. The TGI (K-562 leukemia) was > 100 µM, the TGI (SR leukemia) was > 100 µM and the TGI (SK-MEL-2 melanoma) was > 100 µM. For the same molecule, the TGI (RPMI-8226 leukemia) was > 100 µM, the TGI (DU-145 prostate) was > 100 µM and the TGI (OVCAR-8 ovarian) was > 100 µM. For the same molecule, the TGI (NCI-H522 lung) was > 100 µM, the TGI (UACC-257 melanoma) was > 100 µM and the TGI (SNB-19 CNS) was > 100 µM. The TGI (MALME-3M melanoma) was > 100 µM, the TGI (HS 578T breast) was 82.8 µM and the TGI (A549 NSCLC) was > 100 µM. The TGI (NCI-H23 lung) was > 100 µM, the TGI (786-0 renal) was > 100 µM and the TGI (SN12C renal) was > 100 µM. For the same molecule, the TGI (OVCAR-3 ovarian) was > 100 µM, the TGI (HCT-116 colon) was > 100 µM and the TGI (UACC-62 melanoma) was > 100 µM. The TGI (EKVX NSCLC) was > 100 µM, the TGI (NCI/ADR-RES ovarian) was > 100 µM and the TGI (MOLT-4 leukemia) was > 100 µM. The TGI (UO-31 renal) was > 100 µM, the TGI (MDA-N) was > 100 µM and the TGI (KM12 colon) was > 100 µM. For the same molecule, the TGI (TK-10 renal) was > 100 µM.

For `O=c1[nH]c(=S)[nH]c2c1C(c1ccc(Cl)cc1)c1c([nH]c(=S)[nH]c1=O)O2`, the TGI (MDA-MB-231 breast) was > 100 µM, the TGI (HOP-92 NSCLC) was > 100 µM and the TGI (HOP-62 NSCLC) was > 100 µM. The TGI (MDA-MB-435) was > 100 µM, the TGI (HCT-15 colon) was > 100 µM and the TGI (BT-549 breast) was > 100 µM. For the same molecule, the TGI (HL-60(TB) leukemia) was > 100 µM, the TGI (NCI-H460 lung) was > 100 µM and the TGI (SK-MEL-28 melanoma) was > 100 µM. For the same molecule, the TGI (A498 renal) was > 100 µM, the TGI (M14 melanoma) was > 100 µM and the TGI (IGROV1 ovarian) was > 100 µM. For the same molecule, the TGI (CCRF-CEM leukemia) was > 100 µM, the TGI (SK-MEL-5 melanoma) was > 100 µM and the TGI (PC-3 prostate) was > 100 µM. For the same molecule, the TGI (MCF7 breast) was > 100 µM, the TGI (CAKI-1 renal) was > 100 µM and the TGI (U251 CNS) was > 100 µM. For the same molecule, the TGI (COLO 205 colon) was > 100 µM, the TGI (OVCAR-5 ovarian) was > 100 µM and the TGI (SF-268 CNS) was > 100 µM. The TGI (NCI-H226 lung) was > 100 µM, the TGI (SW-620 colon) was > 100 µM and the TGI (LOX IMVI melanoma) was > 100 µM. For the same molecule, the TGI (ACHN renal) was > 100 µM, the TGI (HT29 colon) was > 100 µM and the TGI (RXF 393 renal) was > 100 µM. The TGI (K-562 leukemia) was > 100 µM, the TGI (SK-MEL-2 melanoma) was > 100 µM and the TGI (RPMI-8226 leukemia) was > 100 µM. The TGI (DU-145 prostate) was > 100 µM, the TGI (OVCAR-8 ovarian) was > 100 µM and the TGI (NCI-H522 lung) was > 100 µM. For the same molecule, the TGI (UACC-257 melanoma) was > 100 µM, the TGI (SNB-19 CNS) was > 100 µM and the TGI (MALME-3M melanoma) was > 100 µM. For the same molecule, the TGI (HS 578T breast) was > 100 µM, the TGI (A549 NSCLC) was > 100 µM and the TGI (NCI-H23 lung) was > 100 µM. For the same molecule, the TGI (786-0 renal) was > 100 µM, the TGI (SN12C renal) was > 100 µM and the TGI (OVCAR-3 ovarian) was > 100 µM. The TGI (HCT-116 colon) was > 100 µM, the TGI (UACC-62 melanoma) was > 100 µM and the TGI (EKVX NSCLC) was > 100 µM. The TGI (NCI/ADR-RES ovarian) was > 100 µM, the TGI (MOLT-4 leukemia) was > 100 µM and the TGI (UO-31 renal) was > 100 µM. For the same molecule, the TGI (MDA-N) was > 100 µM, the TGI (SF-295 CNS) was > 100 µM and the TGI (KM12 colon) was > 100 µM. The TGI (OVCAR-4 ovarian) was > 100 µM and the TGI (TK-10 renal) was > 100 µM.
